# Measurements from patent US4140707A, “Malonato platinum anti-tumor compounds” (priority 1977, dated 1979).
# Assays:
# [1] = test system: Sarcoma 180; assay: Antitumor activity, solid Sarcoma 180 (Table I), T/C tumor weight ratio, sacrifice day 10; assay type: in vivo, female Swiss white mice
# Procedure: The compounds of the invention were tested for anti-tumor activity using our standard screening tumor, solid sarcoma 180 tumer in female Swiss white mice, following standard protocols for this testing as set by the National Cancer Institute. (Cancer Chemotherapy Rep., 25(1962)).
# For these tests an S 180 tumor taken from a sacrificed mouse was disected free of superfluous tissue and cut under sterile conditions into approximately 10 milligram size pieces. These tissue pieces were then implanted by trocar in the left axillary region, subcutaneously, in new mice. The mice were, on the average, approximately four weeks old and weighed 18-20 grams. Taking day 0 as the day of implant, the animals were sacrificed on day 10. The tumors were excised and weighed and the ratio of the weights of the tumors in mice in the treated animals to the control set of animals was obtained. This ratio, multiplied by 100, is given as the T/C ratio in Table I.
# For the first set of tests the coordination compound was freshly dissolved in sterile distilled water and injected intraperitoneally on day 1 into each of the test mice. The volume of the injection was usually 1/2 ml. In some cases, in order to get an active dose into the animal where the chemical was not soluble in this amount of solvent, a fine dispersion was prepared of the dose needed for the test. Thus, some of our test results were obtained on animals where a slurry of the compound was injected. These are so noted in Table I below. In addition, for some of the compounds, there was injected about 1 ml of solution, either in one single injection, or in 2 injections given a few hours apart of 1/2 ml each. These injections were initially given in 4 different dose levels for each new compound with 6 mice in each dose level. The tests covered a dose range from a low ineffective dose, to an upper dose level which produced some deaths within the time period of the experiment.
# [2] = test system: Walker 256 Carcinosarcoma; assay: Confirmatory antitumor activity, Walker 256 Carcinosarcoma (Table III); assay type: in vivo, Rat; details: i.p.
# Procedure: (§1) Confirmatory tests of antitumor activity against the Walker 256 Circinosarcoma in rats, and the ADJ/PC6A tumor in mice were conducted. The initial test results are shown in Table III and confirm the potent action of the compounds of the invention against these other tumor systems.
# [3] = test system: L1210; assay: Confirmatory antitumor activity at the National Cancer Institute, L1210 (Table IV); assay type: in vivo, Mice
# Text: Samples of the malonato diammine and malonato ethylene diamino complexes of platinum(II) were submitted to the Drug Research and Development Branch of the National Cancer Institute for screening for antitumor activity against the L1210 tumor in mice. They confirm the activity of the compounds of the invention.
# [4] = test system: Sarcoma 180; assay: Large Sarcoma 180 regressions (Table II), injection day 8, observed approximately 60 days; assay type: in vivo, female Swiss white mice; details: single i.p. day 8, H2O solution
# Procedure: In addition to the day 1 injections described above, in a number of cases injections were delayed until day 8 of tumor growth. In these cases the tumor was usually at least larger than 1/2 gm, as estimated by palpation. The animals were then injected and observed for a period of approximately 60 days. Activity was measured by the number of animals whose tumors had regressed to the vanishing point, while still allowing the animal to survive for this time period. Such test results are described in TABLE II below.
# [5] = test system: ADJ/PC6A; assay: Confirmatory antitumor activity, ADJ/PC6A (Table III); assay type: in vivo, Mouse; details: i.p.
# Procedure: as §1
# [6] = 45 mg/kg, single i.p. day 1, vehicle not noted
# [7] = 60 mg/kg, single i.p. day 1, vehicle not noted
# [8] = 75 mg/kg, single i.p. day 1, vehicle not noted
# [9] = 90 mg/kg, single i.p. day 1, vehicle not noted
# [10] = 30 mg/kg, single i.p. day 1, solution in H2O
# [11] = 40 mg/kg, single i.p. day 1, solution in H2O
# [12] = 50 mg/kg, single i.p. day 1, solution in H2O
# [13] = 60 mg/kg, single i.p. day 1, solution in H2O
# [14] = 70 mg/kg, single i.p. day 1, solution in H2O
# [15] = 90 mg/kg, single i.p. day 1, solution in H2O
# [16] = 80 mg/kg, single i.p. day 1, vehicle not noted
# [17] = 100 mg/kg, single i.p. day 1, vehicle not noted
# [18] = 120 mg/kg, single i.p. day 1, vehicle not noted
# [19] = 140 mg/kg, single i.p. day 1, vehicle not noted
# [20] = 160 mg/kg, single i.p. day 1, vehicle not noted
# [21] = 180 mg/kg, single i.p. day 1, vehicle not noted
# [22] = 80 mg/kg, single i.p. day 1, solution in H2O
# [23] = 10 mg/kg, single injection day 1 in oil
# [24] = 20 mg/kg, single injection day 1 in oil
# [25] = 40 mg/kg, single injection day 1 in oil
# [26] = dose 4, single injection day 25 in oil
# [27] = dose 20, single injection day 25 in oil
# [28] = dose 100, single injection day 25 in oil
# [29] = 10 mg/kg, single i.p. day 1, solution in H2O
# [30] = 20 mg/kg, single i.p. day 1, solution in H2O
# [31] = 45 mg/kg, single i.p. day 1, solution in H2O
# [32] = 55 mg/kg, single i.p. day 1, solution in H2O
# [33] = 20 mg/kg, single i.p. day 1, vehicle not noted
# [34] = 40 mg/kg, single i.p. day 1, vehicle not noted
# [35] = 110 mg/kg, single i.p. day 1, vehicle not noted
smiles,measurement,setting,value
"CC(N)CN.O=C([O-])CC(=O)[O-].[Pt+2] [malonato-1,2 propylenediamineplatinum (II)]",No. of Deaths,[1]; [6],0
same,T/C,[1]; [6],50
same,No. of Deaths,[1]; [7],1
same,T/C,[1]; [7],9
same,No. of Deaths,[1]; [8],3
same,T/C,[1]; [8],16
same,No. of Deaths,[1]; [9],5
CC1C(=O)[O][Pt]2([NH]CC[NH]2)[O]C1=O [methylmalonatoethylenediamineplatinum (II)],No. of Deaths,[1]; [10],0
same,T/C,[1]; [10],78
same,No. of Deaths,[1]; [11],0
same,T/C,[1]; [11],80
same,No. of Deaths,[1]; [12],0
same,T/C,[1]; [12],51
same,No. of Deaths,[1]; [13],0
same,T/C,[1]; [13],26
same,No. of Deaths,[1]; [14],1
same,T/C,[1]; [14],20
same,No. of Deaths,[1]; [15],1
same,T/C,[1]; [15],4
CN.CN.O=C([O-])CC(=O)[O-].[Pt+2] [malonatobis(methylamine) platinum (II)],No. of Deaths,[1]; [16],0
same,T/C,[1]; [16],58
same,No. of Deaths,[1]; [17],0
same,T/C,[1]; [17],53
same,No. of Deaths,[1]; [18],0
same,T/C,[1]; [18],28
same,No. of Deaths,[1]; [19],0
same,T/C,[1]; [19],25
same,No. of Deaths,[1]; [20],1
same,T/C,[1]; [20],17
same,No. of Deaths,[1]; [21],1
same,T/C,[1]; [21],19
CCC(C(=O)[O-])C(=O)[O-].N.N.[Pt+2] [ethylmalontodiammineplatinum(II)],No. of Deaths,[1]; [10],0
same,T/C,[1]; [10],57
same,No. of Deaths,[1]; [11],0
same,T/C,[1]; [11],43
same,No. of Deaths,[1]; [12],0
same,T/C,[1]; [12],47
same,No. of Deaths,[1]; [13],0
same,T/C,[1]; [13],39
same,No. of Deaths,[1]; [14],0
same,T/C,[1]; [14],17
same,No. of Deaths,[1]; [22],0
same,T/C,[1]; [22],16
NCCN.O=C([O-])CC(=O)[O-].[Pt+2] [malonatoethylenediamineplatinum (II)],% Inhibition,[2]; [23],1%
same,Deaths,[2]; [23],0
same,% Inhibition,[2]; [24],25%
same,Deaths,[2]; [24],0
same,% Inhibition,[2]; [25],100%
same,Deaths,[2]; [25],0
same,Deaths,"[2]; 80 mg/kg, single injection day 1 in oil",0
same,% Inhibition,"[2]; dose 80, single injection day 1 in oil",100%
same,Deaths,"[2]; dose 160, single injection day 1 in oil",all
same,% Increase in Lifespan,"[3]; 16.5 mg/kg, i.p. daily days 1-9, repeat test",160%
same,% Increase in Lifespan,"[3]; 25 mg/kg, i.p. daily days 1-9",160%
same,Deaths,[4]; 40 mg/kg,3
same,Total Number of Regressions,[4]; 40 mg/kg,3
same,Deaths,[4]; 45 mg/kg,5
same,Total Number of Regressions,[4]; 45 mg/kg,1
same,Deaths,[4]; 50 mg/kg,4
same,Total Number of Regressions,[4]; 50 mg/kg,2
same,Deaths,[4]; 60 mg/kg,3
same,Total Number of Regressions,[4]; 60 mg/kg,3
same,% Inhibition,[5]; [26],1.3%
same,Deaths,[5]; [26],0
same,% Inhibition,[5]; [27],94%
same,Deaths,[5]; [27],0
same,% Inhibition,[5]; [28],100%
same,Deaths,[5]; [28],0
same,Deaths,"[5]; dose 500, single injection day 25 in oil",all
same,No. of Deaths,[1]; [29],0
same,T/C,[1]; [29],88
same,No. of Deaths,[1]; [30],0
same,T/C,[1]; [30],58
same,No. of Deaths,[1]; [11],0
same,T/C,[1]; [11],18
same,No. of Deaths,[1]; [31],0
same,T/C,[1]; [31],49
same,No. of Deaths,[1]; [12],0
same,T/C,[1]; [12],35
same,No. of Deaths,[1]; [32],0
same,T/C,[1]; [32],38
same,No. of Deaths,[1]; [13],3/6
same,T/C,[1]; [13],15
same,No. of Deaths,[1]; [7],0
same,T/C,[1]; [7],80
same,No. of Deaths,[1]; [22],3/6
same,T/C,[1]; [22],24
same,No. of Deaths,[1]; [16],0
same,T/C,[1]; [16],138
same,No. of Deaths,[1]; [17],0
same,T/C,[1]; [17],85
same,No. of Deaths,[1]; [18],0
same,T/C,[1]; [18],50
"NCCCN.O=C([O-])CC(=O)[O-].[Pt+2] [malonato-1,3 propylenediamineplatinum (II)]",No. of Deaths,[1]; [33],0
same,T/C,[1]; [33],69
same,No. of Deaths,[1]; [34],0
same,T/C,[1]; [34],79
same,No. of Deaths,[1]; [7],0
same,T/C,[1]; [7],21
same,No. of Deaths,[1]; [16],1
same,T/C,[1]; [16],35
CC1C(=O)[O][Pt]([NH2])([NH2])[O]C1=O [Methylmalonatodiammineplatinum(II)],No. of Deaths,[1]; [10],0
same,T/C,[1]; [10],39
same,No. of Deaths,[1]; [11],0
same,T/C,[1]; [11],26
same,No. of Deaths,[1]; [12],0
same,T/C,[1]; [12],35
same,No. of Deaths,[1]; [13],0
same,T/C,[1]; [13],6
same,No. of Deaths,[1]; [14],3/6
same,T/C,[1]; [14],124
same,No. of Deaths,[1]; [22],6/6
"N.N.O=C([O-])C1(C(=O)[O-])CCC1.[Pt+4] [1,1-cyclobutanedicarboxylate diammineplatinum (II)]",No. of Deaths,[1]; [33],0
same,T/C,[1]; [33],71
same,No. of Deaths,[1]; [34],0
same,T/C,[1]; [34],60
same,No. of Deaths,[1]; [7],0
same,T/C,[1]; [7],38
same,No. of Deaths,[1]; [16],0
same,T/C,[1]; [16],42
same,No. of Deaths,[1]; [17],0
same,T/C,[1]; [17],69
same,No. of Deaths,[1]; [18],0
same,T/C,[1]; [18],18
same,No. of Deaths,[1]; [20],4
same,T/C,[1]; [20],62
CCC1C(=O)[O][Pt]2([NH]CC[NH]2)[O]C1=O [ethylmalonatoethylenediamineplatinum (II)],No. of Deaths,[1]; [34],0
same,T/C,[1]; [34],72
same,No. of Deaths,[1]; [7],0
same,T/C,[1]; [7],81
same,No. of Deaths,[1]; [16],0
same,T/C,[1]; [16],79
same,No. of Deaths,[1]; [9],0
same,T/C,[1]; [9],47
same,No. of Deaths,[1]; [17],1
same,T/C,[1]; [17],55
same,No. of Deaths,[1]; [35],0
same,T/C,[1]; [35],41
same,No. of Deaths,[1]; [18],0
same,T/C,[1]; [18],58
